Data on nine compounds can be found in PubChem BioAssay (NCI).

Some test systems named below: IGROV1 ovarian; UACC-62 melanoma; MDA-MB-435; CCRF-CEM leukemia; UO-31 renal; A498 renal; SW-620 colon; RPMI-8226 leukemia; HOP-62 NSCLC; SF-539 CNS.
Common to all, as to assay: NCI tumour cell line growth inhibition, 48 h

Values joined by “and” are separate entries in the source; they are usually repeats but may differ in a detail not shown here. Equal values may be shown once.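 Briefly, cells in 96-well plates were exposed to five compound concentrations for 48 h, and endpoints were estimated by linear interpolation. GI50 is the concentration that inhibits growth by half. At the TGI there is no net growth.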 A value given as a limit tells only on which side of the number the result lay.

As for `CCOc1cc(C(C)(C)C)ccc1C1=N[C@H](c2ccc(Cl)cc2)[C@H](c2ccc(Cl)cc2)N1C(=O)N1CCN(CC#Cc2cccc3c2CN([C@@H]2CCC(=O)NC2=O)C3=O)CC1`, the GI50 is 0.165 µM in the test on IGROV1 ovarian; 0.673 µM with UACC-62 melanoma; 2.75 µM in the test with MDA-MB-435; 0.023 µM in the test on CCRF-CEM leukemia; 0.236 µM in the test on UO-31 renal; 0.197 µM in the test with A498 renal. The GI50 in the test on SW-620 colon is 0.143 µM; with RPMI-8226 leukemia it was 2.3 µM; in the test on HOP-62 NSCLC it was 0.115 µM; in the test with SF-539 CNS it was 4.49 µM. In addition, the TGI in the test with IGROV1 ovarian was > 33.5 µM; in the test with UACC-62 melanoma, 14.7 µM; in the test with MDA-MB-435, > 53.8 µM; with CCRF-CEM leukemia, > 100 µM; in the test on UO-31 renal, 2 µM; in the test on A498 renal it was 6.62 µM. The TGI in the test with SW-620 colon was > 100 µM; in the test on RPMI-8226 leukemia, > 100 µM; with HOP-62 NSCLC, 16.3 µM; in the test on SF-539 CNS, > 100 µM.
As to `NCCCNCCS`, the TGI was > 100 µM in the test with IGROV1 ovarian; > 100 µM in the test with UACC-62 melanoma; > 100 µM with MDA-MB-435; > 100 µM and 72.3 µM with CCRF-CEM leukemia; > 100 µM in the test with UO-31 renal; > 100 µM with A498 renal. The TGI with SW-620 colon, with RPMI-8226 leukemia, in the test with HOP-62 NSCLC and with SF-539 CNS was > 100 µM in each case. Also, the GI50 in the test with CCRF-CEM leukemia is > 100 µM and 21.8 µM; in the test with SW-620 colon, > 100 µM and 46.3 µM; in the test with RPMI-8226 leukemia, > 100 µM and 20.6 µM.
With `CCN(CC)CCNC(Cc1ccccc1)c1ccc(OCc2ccccc2)cc1` (stereo not drawn), the GI50 with IGROV1 ovarian is 4.43 µM; in the test with UACC-62 melanoma, 1.92 µM; with MDA-MB-435, 3.16 µM; with CCRF-CEM leukemia, 3.19 µM; in the test with UO-31 renal, 2.53 µM; with A498 renal it was 2.02 µM. Also, the GI50 in the test with SW-620 colon is 5.53 µM; in the test on RPMI-8226 leukemia it was 2.4 µM; with HOP-62 NSCLC, 8.49 µM; in the test on SF-539 CNS it was 5.26 µM. Also, the TGI in the test on IGROV1 ovarian was found to be 17.1 µM; with UACC-62 melanoma, 3.89 µM; with MDA-MB-435, 11 µM; with CCRF-CEM leukemia, 13.7 µM; with UO-31 renal, 14.7 µM; with A498 renal it was 7.94 µM. Also, the TGI in the test with SW-620 colon was 20 µM; with RPMI-8226 leukemia it was 6.84 µM; with HOP-62 NSCLC, 21.7 µM; with SF-539 CNS it was 18.6 µM.
Consider `O=C1C(=O)c2ccccc2C(O)=C1C(C1=C(O)c2ccccc2C(=O)C1=O)c1ccc(Cl)cc1`, for which the TGI is 27.2 µM in the test with IGROV1 ovarian; 23.5 µM in the test with UACC-62 melanoma; 3.38 µM with MDA-MB-435; > 46 µM in the test with CCRF-CEM leukemia; 24.5 µM in the test with UO-31 renal; 34 µM with A498 renal. Moreover, the TGI with SW-620 colon was > 73.7 µM; in the test with RPMI-8226 leukemia it was > 39.2 µM; in the test on HOP-62 NSCLC it was 13.1 µM; in the test on SF-539 CNS, 32.9 µM.
As to `Nc1ncnc2c1ncn2C1C=C(CO)C(O)C1O` (stereo not drawn), the TGI was > 54.3 µM with IGROV1 ovarian; > 57.5 µM with UACC-62 melanoma; > 100 µM with MDA-MB-435; 14 µM in the test on CCRF-CEM leukemia; 19.9 µM with UO-31 renal; 43.5 µM with A498 renal. The TGI with SW-620 colon is > 86.8 µM; in the test on RPMI-8226 leukemia, > 37 µM; with HOP-62 NSCLC, > 100 µM; with SF-539 CNS, > 91.1 µM.
For `C=C(C)[C@@H]1CC[C@]2(COCCCN)CC[C@]3(C)[C@H](CC[C@@H]4[C@@](C)(CCCNCCCN)[C@H](C(=C)C)CC[C@]43C)[C@@H]12`, the GI50 in the test on IGROV1 ovarian is 1.49 µM; in the test on UACC-62 melanoma it was 1.71 µM; with MDA-MB-435 it was 1.84 µM; in the test with CCRF-CEM leukemia, 2.39 µM; in the test with UO-31 renal, 1.43 µM; in the test on A498 renal, 14.5 µM. In addition, the GI50 in the test on SW-620 colon is 1.84 µM; with RPMI-8226 leukemia, 2.2 µM; with HOP-62 NSCLC it was 1.66 µM; in the test with SF-539 CNS it was 1.76 µM. The TGI worked out at 2.9 µM with IGROV1 ovarian; 3.22 µM in the test with UACC-62 melanoma; 3.41 µM in the test with MDA-MB-435; 7.34 µM with CCRF-CEM leukemia; 2.77 µM in the test with UO-31 renal; 37.1 µM in the test on A498 renal. Moreover, the TGI was 3.79 µM in the test on SW-620 colon, 5.08 µM in the test on RPMI-8226 leukemia, 3.25 µM with HOP-62 NSCLC and 3.21 µM in the test on SF-539 CNS.
Turning to `O=NNc1ccc2ccccc2n1`, the TGI in the test with IGROV1 ovarian, with UACC-62 melanoma, in the test on MDA-MB-435, with CCRF-CEM leukemia, in the test on UO-31 renal and in the test on A498 renal was > 100 µM in each case. Moreover, the TGI in the test on SW-620 colon, with RPMI-8226 leukemia, in the test on HOP-62 NSCLC and in the test with SF-539 CNS was > 100 µM throughout.
On to `Cc1cc(N(CC(C)Br)CC(C)Br)ccc1N=Nc1ccccc1C(=O)O` (stereo not drawn), for which the TGI was 24.2 µM in the test on IGROV1 ovarian; 3.4 µM in the test on UACC-62 melanoma; 33.5 µM in the test on MDA-MB-435; > 94.1 µM in the test on CCRF-CEM leukemia; 37.5 µM in the test with UO-31 renal; 3.91 µM in the test with A498 renal. In addition, the TGI in the test with SW-620 colon is > 84.1 µM; in the test on RPMI-8226 leukemia, 7.24 µM; in the test with HOP-62 NSCLC it was 22.8 µM; with SF-539 CNS, 4.39 µM.
As to `CCN(CC)CCCC(CCl)Nc1ccnc2cc(Cl)ccc12` (stereo not drawn), the GI50 was 70.5 µM and 69.1 µM in the test on IGROV1 ovarian; 20 µM and 6.69 µM in the test with UACC-62 melanoma; 14.6 µM and 6.64 µM in the test on MDA-MB-435; 13.7 µM and 16.9 µM in the test with CCRF-CEM leukemia; 16.6 µM and 21.5 µM with UO-31 renal; 24.2 µM and 22 µM with A498 renal. In addition, the GI50 was 22.5 µM and 33.5 µM with SW-620 colon; 12.2 µM with RPMI-8226 leukemia; 25.7 µM and 28.7 µM in the test with HOP-62 NSCLC; 10.7 µM and 11.4 µM in the test with SF-539 CNS. The TGI is > 100 µM in the test on IGROV1 ovarian; 38.7 µM and 34.8 µM with UACC-62 melanoma; 28.3 µM and 19.3 µM in the test with MDA-MB-435; 39.7 µM and 51.5 µM in the test on CCRF-CEM leukemia; 37 µM and > 100 µM in the test with UO-31 renal; 64.3 µM and 51.1 µM in the test with A498 renal. Besides, the TGI with SW-620 colon was 54.4 µM and > 100 µM; in the test on RPMI-8226 leukemia, 34.4 µM; with HOP-62 NSCLC it was 71.8 µM and > 100 µM; in the test on SF-539 CNS it was 24.8 µM and 27.5 µM.
